Non-standard residues stand in square brackets, D forms with d. Residues, ends and D or L forms follow the SMILES beside them. *: point of attachment. Gly(N-(3-decanoyloxypropyl)) = CCCCCCCCCC(=O)OCCCNCC(=O)O; N(3-lauroyloxypropyl)Gly = CCCCCCCCCCCC(=O)OCCCNCC(=O)O; Gly(N-(CH2)3O-octanoyl) = CCCCCCCC(=O)OCCCNCC(=O)O; N(3-imidazol-1-ylpropyl)Gly = O=C(O)CNCCCn1ccnc1; Gly(N-3-morpholinopropyl) = O=C(O)CNCCCN1CCOCC1; N(2-ethylhexyl)Gly = CCCCC(CC)CNCC(=O)O; Gly(N-dodecyl) = CCCCCCCCCCCCNCC(=O)O; N(CH(CH2OH)2)Gly = O=C(O)CNC(CO)CO; NHexGly = CCCCCCNCC(=O)O; For = O=C*
What was measured:
[1] = Delivery vehicle size and polydispersity by dynamic light scattering; format: physicochemical
Method in brief: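 LNPs made by microfluidic mixing of ethanolic peptoid/DSPC/cholesterol/DMG-PEG2000 (20:1.79:7.16:1.84 by weight) with mRNA in 10 mM citrate pH 5.0 at 1:3 by volume, then dialyzed overnight at 4 °C against tris-sucrose pH 7.4. Size and PDI read by dynamic light scattering in PBS.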

mRNA = mRNA encapsulation (modified Quant-iT RiboGreen assay); format: physicochemical; settings: for mean percent encapsulation of RNA: RiboGreen, without vs with Triton X-100; for % Encapsulation: mRNA
Method in brief: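 Peptoid nanoparticles were incubated with Triton X-100 for 10 min to release entrapped mRNA, then mixed with RiboGreen reagent and read by fluorescence (ex 485 nm/em 530 nm). Percent encapsulation was derived from the ratio of fluorescence without versus with Triton X-100.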

firefly luciferase = assay: In vivo firefly luciferase expression after intravenous injection of fLuc mRNA delivery vehicles (IVIS imaging); design: species or system female Balb/c mice; settings: for Total Flux: mice, 2.5 ug fLuc mRNA intravenously, 6 hours post-injection; for Total Flux (luciferase expression): fLuc mRNA, intravenous, Balb/c mice
Method in brief: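 Female Balb/c mice (6-8 weeks) given 2.5 ug fLuc mRNA in Nutshells IV. At 6 hours, IP D-luciferin (30 mg/mL, 10 μL/g) under isoflurane; IVIS imaging 10 minutes later, then harvested organs imaged ex vivo. Read-out: total photon flux in regions of interest.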

hEPO = assay: Quantification of hEPO in serum after IV injection of mRNA (Human EPO ELISA); format: in vivo; settings: Balb/c mice, 2.5 μg mRNA IV, serum after 6 hours
Method: Balb/c mice were treated with 2.5 μg of mRNA coding for human erythropoiten via IV injection according to a similar method as in Example 4. hEPO protein in the serum was quantified after 6 hours using the Human EPO ELISA Kit from Invitrogen (catalog #BMS2035-2). Wash buffer (PBS with 1% tween 20) and assay buffer (PBS with 1% tween 20, 10% BSA) were prepared from a 20× concentrate with milli-Q water. Serum samples were diluted with PBS according to expected EPO concentration, with a 50× dilution for low expression samples and up to a 30,000× dilution for samples expected to have high expression. Microwell strips were washed in a plate washer with wash buffer and tapped on an absorbent pad to remove excess buffer. 100 μL of sample diluent were added to each well that will be used for the standard curve. 50 μL of sample diluent was added to each sample well.
The standard curve was prepared by reconstituting the human erythropoietin standard by adding the volume of water listed on the vial label. Standard was swirled gently and allowed to reconstitute for 10 minutes prior to use, then 100 μL is added to standard wells and mixed well. 100 μL from standard wells were then transferred to sample wells and mixed well. This was repeated 5 times to produce 2 columns of standard dilutions from 100 to 1.6 mIU/mL. 100 μL was discarded from the last microwells. The final 2 wells contained 100 μL of sample diluent and served as a blank. An external standard was also included to facilitate a mIU/mL conversion to ng/mL. The same serial dilution method was repeated starting with the external standard at 6.25 ng/mL. Once the standards were added, 50 μL of each sample was added in duplicate to the sample wells. Next, the biotin-conjugate was prepared by diluting 1:100 in assay buffer. 50 μL of biotin-conjugate was added to all wells and the plate was covered with a plate seal and shaken at room temperature for 1 hour. During the last few minutes of shaking, streptavidin-HRP was prepared by diluting 1:100 in assay buffer. The plate was washed on a plate washer and tapped on an absorbent pad to remove remaining wash buffer.
100 μL of the diluted streptavidin-HRP was added to each well and the plate was sealed and shaken for 15 minutes at room temperature. After 15 minutes, the plate seal was removed and the plate was washed on a plate washer and remaining wash buffer tapped out on an absorbent pad. 100 μL of TMB substrate was added to all wells and the plate was incubated for 10 minutes at room temperature out of direct light. Color development was checked every few minutes and the assay was stopped when the highest standard was dark blue. The reaction was stopped by pipetting 100 μL of stop solution into each well. Immediately after stop solution was added, the plate was gently tapped to ensure the solution was mixed. Absorbance was then read at 450 nm for each well. A standard curve was plotted for both the kit-provided standards (mIU/mL) and the external standard (ng/mL) and fit using Prism. Sample absorbances that fell within the standard curve were interpolated and adjusted for dilution (including a 2× assay dilution). Samples that were not within the standard curve were repeated at an adjusted dilution.

[2] = Peptoid quantity remaining in liver by HPLC-TOF mass spectrometry; format: in vivo; settings: liver homogenate
Method: Peptoid quantity in liver was determined via high-performance liquid chromatography coupled with time-of-flight mass spectrometer (HPLC-TOF). The entire liver was weighed, and then two sections were isolated using a provided biopsy punch for liver homogenization. Liver homogenate sample was prepared by resuspending 20 mg liver tissue in 400 μL extraction solvent (IPA/MeOH=8/2) containing an internal standard (400 pg/μL) followed by bead homogenization (45 sec per cycle for 3-4 cycles). Homogenized samples were centrifuged at 12,000 rpm for 8 min at 6 °C. The resulting supernatant was collected and stored at −20 °C for further LC analysis. 5 μL of the resulting supernatant sample from solid or liquid tissue was injected into a BEH C8 column on an Agilent 1290 Infinity II liquid chromatograph coupled with an Agilent 6230 LC-TOF system. Concentrations of peptoids were determined by a linear calibration curve (linear range:0.2-50 μg/g for solid tissue). Standard calibration curve solutions were prepared by spiking untreated liver followed by homogenization and centrifugation.

luciferase = assay: Luciferase expression after local (intramuscular or subcutaneous) administration of mRNA; format: in vivo; settings: mRNA 0.01 mpk, 6 hours; for IM Flux: intramuscular; for SC Flux: subcutaneous
Method in brief: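 Female Balb/c mice (6-8 weeks) received fLuc mRNA in aminolipidated peptoid Nutshells at 0.01 mpk subcutaneously or intramuscularly, or 0.1 mpk intratumorally. At 6 hours, anesthetized mice were given D-luciferin IP and imaged 10 minutes later; harvested organs were also imaged and total photon flux quantified in regions of interest.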

[3] = DLS in PBS, peptoid:DSPC:Cholesterol:DMG-PEG2000 weight ratio 20:1.79:7.16:1.84, mRNA

SMILES | PDI [1, 3] | Particle Size [1, 3] [nm] | mean percent encapsulation of RNA (mRNA) [%] | % of injected dose remaining in liver [2] [%] | Particle Size ([1]; formulation recipe D22) [nm] | Particle Size ([1]; formulation recipe O3) [nm] | Particle Size ([1]; formulation recipe O7) [nm] | % Encapsulation (mRNA; formulation recipe D22) [%] | % Encapsulation (mRNA; formulation recipe O3) [%] | % Encapsulation (mRNA; formulation recipe O7) [%] | Total Flux (firefly luciferase) [p/s] | hEPO (hEPO) [ng/mL] | IM Flux (luciferase) [p/s] | SC Flux (luciferase) [p/s] | Total Flux (luciferase expression) (firefly luciferase; formulation recipe D22) [p/s] | Total Flux (luciferase expression) (firefly luciferase; formulation recipe O3) [p/s] | Total Flux (luciferase expression) (firefly luciferase; formulation recipe O7) [p/s]
CCCCCCCC(=O)OCCCN(CC(=O)N(CC(=O)N(CC(=O)N(CCCOC(=O)CCCCCCC)CC(=O)N(CC(N)=O)CC(CC)CCCC)CC(CC)CCCC)CC(CC)CCCC)C(=O)CN(CC(CC)CCCC)C(=O)CNC(CO)CO (stereo not shown) [Compound 4] (H-[N(CH(CH2OH)2)Gly][N(2-ethylhexyl)Gly][Gly(N-(CH2)3O-octanoyl)][N(2-ethylhexyl)Gly][N(2-ethylhexyl)Gly][Gly(N-(CH2)3O-octanoyl)][N(2-ethylhexyl)Gly]-NH2) | 0.113 | 74.4 | 94.6 | 5.98 | – | – | – | – | – | – | 4.33E+09 | 291 | 5.26E+08 | 5.11E+08 | – | – | –
CCCCCCCCCC(=O)OCCCN(CC(=O)N(CC(=O)N(CC(=O)N(CCCOC(=O)CCCCCCCCC)CC(=O)N(CC(N)=O)CC(CC)CCCC)CC(CC)CCCC)CC(CC)CCCC)C(=O)CN(CC(CC)CCCC)C(=O)CNC(CO)CO (stereo not shown) [Compound 5] (H-[N(CH(CH2OH)2)Gly][N(2-ethylhexyl)Gly][Gly(N-(3-decanoyloxypropyl))][N(2-ethylhexyl)Gly][N(2-ethylhexyl)Gly][Gly(N-(3-decanoyloxypropyl))][N(2-ethylhexyl)Gly]-NH2) | 0.076 | 86.2 | 84.8 | 14.71 | 86.2 | 81.6 | 51.7 | 84.8 | 82.2 | 93.5 | 1.77E+09 | 278 | 1.62E+08 | 1.71E+08 | 1.77E+09 | 3.25E+09 | 1.93E+09
CCCCCCCCCCCC(=O)OCCCN(CC(=O)N(CC(=O)N(CC(=O)N(CCCOC(=O)CCCCCCCCCCC)CC(=O)N(CC(N)=O)CC(CC)CCCC)CC(CC)CCCC)CC(CC)CCCC)C(=O)CN(CC(CC)CCCC)C(=O)CNC(CO)CO (stereo not shown) [Compound 6] (H-[N(CH(CH2OH)2)Gly][N(2-ethylhexyl)Gly][N(3-lauroyloxypropyl)Gly][N(2-ethylhexyl)Gly][N(2-ethylhexyl)Gly][N(3-lauroyloxypropyl)Gly][N(2-ethylhexyl)Gly]-NH2) | 0.125 | 83.9 | 77.1 | 13.73 | – | – | – | – | – | – | 1.67E+09 | 245 | 1.22E+08 | 1.14E+08 | – | – | –

Second part, led by results:

PDI [1, 3] | Particle Size [1, 3] [nm] | mean percent encapsulation of RNA (mRNA) [%] | % of injected dose remaining in liver [2] [%] | Particle Size ([1]; formulation recipe D22) [nm] | Particle Size ([1]; formulation recipe O3) [nm] | Particle Size ([1]; formulation recipe O7) [nm] | % Encapsulation (mRNA; formulation recipe D22) [%] | % Encapsulation (mRNA; formulation recipe O3) [%] | % Encapsulation (mRNA; formulation recipe O7) [%] | SMILES | Total Flux (firefly luciferase) [p/s] | hEPO (hEPO) [ng/mL] | IM Flux (luciferase) [p/s] | SC Flux (luciferase) [p/s] | Total Flux (luciferase expression) (firefly luciferase; formulation recipe D22) [p/s] | Total Flux (luciferase expression) (firefly luciferase; formulation recipe O3) [p/s] | Total Flux (luciferase expression) (firefly luciferase; formulation recipe O7) [p/s]
0.289 | 111.2 | 66.2 | 10.58 | – | – | – | – | – | – | CCCCCCCCCCCC(=O)OCCCN(CC(=O)N(CCCOC(=O)CCCCCCCCCCC)CC(=O)N(CCCCCC)CC(=O)N(CCCOC(=O)CCCCCCCCCCC)CC(=O)N(CCCOC(=O)CCCCCCCCCCC)CC(=O)N(CCCCCC)CC(N)=O)C(=O)CNCCCn1ccnc1 [Compound 73] (H-[N(3-imidazol-1-ylpropyl)Gly][N(3-lauroyloxypropyl)Gly][N(3-lauroyloxypropyl)Gly][NHexGly][N(3-lauroyloxypropyl)Gly][N(3-lauroyloxypropyl)Gly][NHexGly]-NH2) | – | 27.8 | 5.36E+07 | 6.38E+07 | – | – | –
– | – | – | 6.17 | – | – | – | – | – | – | CCCCCCCCCCCC(=O)OCCCN(C=O)CC(=O)N(CCCOC(=O)CCCCCCCCCCC)CC(=O)N(CC(=O)N(CCCN1CCOCC1)CC(=O)N(CCCOC(=O)CCCCCCCCCCC)CC(=O)N(CCCOC(=O)CCCCCCCCCCC)CC(=O)N(CC(N)=O)CC(CC)CCCC)CC(CC)CCCC (stereo not shown) [Compound 81] (For-[N(3-lauroyloxypropyl)Gly][N(3-lauroyloxypropyl)Gly][N(2-ethylhexyl)Gly][Gly(N-3-morpholinopropyl)][N(3-lauroyloxypropyl)Gly][N(3-lauroyloxypropyl)Gly][N(2-ethylhexyl)Gly]-NH2) | 1.89E+08 | 52 | 2.11E+08 | 6.97E+07 | – | – | –
0.102 | 81.1 | 0.0 | 40.01 | – | – | – | – | – | – | CCCCCCCCCCCCN(C=O)CC(=O)N(CCCOC(=O)CCCCCCCCCCC)CC(=O)N(CC(=O)N(CCCn1ccnc1)CC(=O)N(CC(=O)N(CCCOC(=O)CCCCCCCCCCC)CC(=O)N(CCCCCCCCCCCC)CC(N)=O)CC(CC)CCCC)CC(CC)CCCC (stereo not shown) [Compound 85] (For-[Gly(N-dodecyl)][N(3-lauroyloxypropyl)Gly][N(2-ethylhexyl)Gly][N(3-imidazol-1-ylpropyl)Gly][N(2-ethylhexyl)Gly][N(3-lauroyloxypropyl)Gly][Gly(N-dodecyl)]-NH2) | – | 26.3 | 5.99E+07 | 4.21E+07 | – | – | –

Source: patent US20260373248A1, “DEGRADABLE PEPTOIDS” (Medici Therapeutics, Inc., priority 2023, published 2026)
